From publication PMC5794198, “Inhibitors of Trypanosoma cruzi Sir2 related protein 1 as potential drugs against Chagas disease” (PLoS Neglected Tropical Diseases, 2018)
Entries after “also recorded” stand apart in the source; their conditions may differ.

Assays:
Neurons = test: MTT cytotoxicity on neurons; type: cell-based
Experimental: To evaluate toxicity towards mammalian cell lines (hepatocytes (Seralab), neurons and MDCK cells (ATCC); a renal cell line from dogs), all the compounds were assayed with MTT [66]. Additionally, for cardiotoxicity evaluation, where toxic effects in cardiomyocytes could be affecting their function before being lethal, a hERG assay was performed according to the manufacturer’s protocol Predictor hERG Fluorescence Polarization Assay (Invitrogen). Briefly, inhibition of hERG channel was analysed by competition of BNIPSpd and a high-affinity red fluorescent hERG channel ligand. BNIPSpd (9) was mixed with the ligand and membranes containing hERG channel, incubated for 2 hrs at RT and the fluorescence polarization was measured using 530 / 590 nm ex/em filters using the Synergy 2 plate reader (Biotek).

[1] = Snapshot pharmacokinetics in blood after intravenous injection; type: in vivo, BALB/c mice; conditions: 5 mg/kg intravenous
Experimental: The pharmacokinetic profile of BNIPSpd was determined following intravenous injection of 5 mg/kg in BALB/c mice. The blood was collected from tail veins after 0, 5, 15, 30, 45 min, 1, 3, 24, 48 and 72 h of drug administration. Blood concentrations of the drug were analysed by UHPLC- ESI-MS/MS.
Supplementary file pntd.0006180.s006.tif: S5 Fig In vivo efficacy testing of BNIPSpd (9). A) Mice were infected with 10^4 Luc^+ trypomastigotes by intraperitoneal injection. Treatments (BZN, benznidazole at 100 mg/kg/day per os, and BNIPSpd (9) at 5 mg/kg/day by intravenous injection) were initiated 7 days after infection, as well as the respective controls (KP, Kolliphor HS 15 20% per os and DMSO 10% by intravenous injection). […] In the lower panel, bioluminescence signal of whole mice represented in average radiance (photons/sec/cm^2/sr) quantified before and after treatment. […] B) Snapshot Pharmacokinetics of BNIPSpd (9) in BALB/c mice by quantification of BNIPSpd (9) in the blood of mice by UHPLC-MS/MS ESI+ at different time-points after administration of a 5 mg/kg dose by intravenous injection. […] The dashed line represents the value of EC50 for BNIPSpd (9) in the in vitro assay against T. cruzi amastigotes, and the dotted line represents the lower limit of quantification of the technique. […]

Compound: O=C1c2cccc3cccc(c23)C(=O)N1CCCNCCCCNCCCNCCCN1C(=O)c2cccc3cccc(c23)C1=O [Compound 9, BNIP Spermidine]
- Neurotoxicity (Neurons) cytotoxicity (Neurons): ≥ 3.9 µM
- Highest plasma concentration detected ([1]; at the 5 min time-point): 1.70 µM
- Blood level after the 3 h time-point ([1]; 3 h up to 72 h, lower limit of quantification 8.1 nM, listed as BNIPSpd (9)): below the level of detection; also recorded: no longer detected
